The results in this text go back to ChEMBL document CHEMBL6153096, “Development of Potent and Selective CK1α Molecular Glue Degraders” (J Med Chem, 2025).

Data set [1] concerns MOLT-4. The data set is described as follows: Induction of GSPT1 degradation in human MOLT-4 cells at 1 uM incubated for 5 hrs by quantitative mass spectrometry based proteomic analysis. The data set is classed as cell-based.
In data set [2] the test system is MOLT-4. Kind of data set: Induction of WEE1 degradation in human MOLT-4 cells at 1 uM incubated for 5 hrs by quantitative mass spectrometry based proteomic analysis. The data set is classed as cell-based.
In data set [3] the target is Zinc finger protein Helios (Homo sapiens) (UniProt Q9UKS7). Kind of data set: Induction of IKZF2 degradation in human MOLT-4 cells at 1 uM incubated for 5 hrs by quantitative mass spectrometry based proteomic analysis. The data set is classed as cell-based.
Data set [4] has as its target T1, Cereblon/Casein kinase I alpha (Homo sapiens, UniProt P48729+Q96SW2). Kind of data set: Molecular glue activity at CRBN/HiBiT-tagged CK1-alpha in human Jurkat cells assessed as induction of CK1-alpha degradation incubated for 5 hrs by Nano-Glo HiBiT assay. The data set is classed as cell-based.
Target sequence in this assay (P48729 whole entry): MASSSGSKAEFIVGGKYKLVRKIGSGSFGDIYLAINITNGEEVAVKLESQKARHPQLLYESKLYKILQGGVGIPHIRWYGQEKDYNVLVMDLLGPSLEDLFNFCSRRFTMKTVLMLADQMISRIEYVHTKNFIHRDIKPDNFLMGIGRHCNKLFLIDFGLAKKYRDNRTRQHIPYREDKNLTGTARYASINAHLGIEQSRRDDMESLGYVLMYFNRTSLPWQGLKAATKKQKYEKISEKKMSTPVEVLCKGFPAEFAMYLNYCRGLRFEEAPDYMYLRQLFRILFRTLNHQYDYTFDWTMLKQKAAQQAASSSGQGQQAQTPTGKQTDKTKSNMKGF
Target sequence in this assay (Q96SW2 whole entry): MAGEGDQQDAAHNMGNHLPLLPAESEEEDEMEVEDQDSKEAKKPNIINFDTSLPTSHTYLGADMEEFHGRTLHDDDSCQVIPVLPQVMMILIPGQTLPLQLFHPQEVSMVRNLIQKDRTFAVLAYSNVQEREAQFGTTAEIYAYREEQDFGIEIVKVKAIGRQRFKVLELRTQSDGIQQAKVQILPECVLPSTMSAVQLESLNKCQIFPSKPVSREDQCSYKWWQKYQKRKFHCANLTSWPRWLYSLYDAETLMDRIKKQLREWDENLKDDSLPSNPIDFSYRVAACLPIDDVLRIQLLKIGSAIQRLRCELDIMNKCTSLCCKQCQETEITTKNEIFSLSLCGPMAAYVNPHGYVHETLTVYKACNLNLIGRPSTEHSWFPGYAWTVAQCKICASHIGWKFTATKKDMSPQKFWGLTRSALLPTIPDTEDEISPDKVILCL
Data set [5] in a line: Induction of HiBiT-tagged WEE1 degradation in human Jurkat cells incubated for 5 hrs by Nano-Glo HiBiT assay. The data set is classed as cell-based. In general terms: With HiBiT, luminescence reflects the tagged protein that the partner subunit can reach.
Another data set has as its system Jurkat. Kind of data set: Induction of HiBiT-tagged WEE1 degradation in human Jurkat cells incubated for 5 hrs by Nano-Glo HiBiT assay relative to control. The data set is classed as cell-based.
Data set [6] addresses T1, Cereblon/Casein kinase I alpha. The data set is described as follows: Molecular glue activity at CRBN/CK1-alpha in human MOLT-4 cells with CRBN-/- assessed as induction of CK1-alpha degradation at 1 uM incubated for 5 hrs by quantitative mass spectrometry based proteomic analysis. The data set is classed as cell-based.
Target sequence in this assay (P48729 2-337 limits assumed): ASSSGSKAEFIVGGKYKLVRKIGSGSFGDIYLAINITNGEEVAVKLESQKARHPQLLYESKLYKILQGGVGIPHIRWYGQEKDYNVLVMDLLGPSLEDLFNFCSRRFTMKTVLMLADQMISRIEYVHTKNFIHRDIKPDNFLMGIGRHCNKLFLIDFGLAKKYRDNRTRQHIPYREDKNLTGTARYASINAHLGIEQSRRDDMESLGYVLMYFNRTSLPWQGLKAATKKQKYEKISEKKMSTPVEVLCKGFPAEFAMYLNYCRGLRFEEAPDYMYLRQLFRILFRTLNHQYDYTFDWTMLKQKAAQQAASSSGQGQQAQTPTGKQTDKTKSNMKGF
Target sequence in this assay (Q96SW2 whole entry partner): as the sequence (Q96SW2 whole entry) above
Data set [7] has the same target. Kind of data set: Molecular glue activity at CRBN/CK1-alpha in human MOLT-4 cells assessed as induction of CK1-alpha degradation at 100 uM incubated for 5 hrs by Western blot analysis. The data set is classed as cell-based. (In general: Immunoblotting shows a protein as a band on a membrane.)
Target sequence in this assay (P48729 2-337 limits assumed): as the sequence (P48729 2-337 limits assumed) above
Target sequence in this assay (Q96SW2 whole entry partner): as the sequence (Q96SW2 whole entry) above
Data set [8] shares this target. The data set is described as follows: Molecular glue activity at CRBN/CK1-alpha in human MOLT-4 cells assessed as induction of CK1-alpha degradation at 1 uM incubated for <3 hrs by Western blot analysis. The data set is classed as cell-based.
Target sequence in this assay (P48729 2-337 limits assumed): as the sequence (P48729 2-337 limits assumed) above
Target sequence in this assay (Q96SW2 whole entry partner): as the sequence (Q96SW2 whole entry) above
Another data set deals with MOLM-13. Kind of data set: Antiproliferative activity against human MOLM-13 cells incubated for 72 hrs by CellTiter-Glo Luminescent Cell Viability Assay. The data set is classed as functional, cell-based. The following applies: MOLM-13, 72 h. (ATP-based viability assays read luminescence as a measure of living cells.)
Data set [9] concerns MOLM-14. The data set is described as follows: Antiproliferative activity against human MOLM-14 cells incubated for 72 hrs by CellTiter-Glo Luminescent Cell Viability Assay. The data set is classed as functional, cell-based.
The test system of data set [10] is MOLM-14. Kind of data set: Antiproliferative activity against human MOLM-14 cells with CRBN-/- incubated for 72 hrs by CellTiter-Glo Luminescent Cell Viability Assay. The data set is classed as functional, cell-based.
For data set [11], the target named is T1, Cereblon/Casein kinase I alpha. Kind of data set: Molecular glue activity at CRBN/CK1-alpha in human MOLM-13 cells assessed as induction of CK1-alpha degradation at 1 uM incubated for 5 hrs by Western blot analysis. The data set is classed as cell-based.
Target sequence in this assay (P48729 2-337 limits assumed): as the sequence (P48729 2-337 limits assumed) above
Target sequence in this assay (Q96SW2 whole entry partner): as the sequence (Q96SW2 whole entry) above
Data set [12] has the same target. The data set is described as follows: Molecular glue activity at CRBN/CK1-alpha in human MOLM-14 cells assessed as induction of CK1-alpha degradation at 1 uM incubated for 5 hrs by Western blot analysis. The data set is classed as cell-based.
Target sequence in this assay (P48729 2-337 limits assumed): as the sequence (P48729 2-337 limits assumed) above
Target sequence in this assay (Q96SW2 whole entry partner): as the sequence (Q96SW2 whole entry) above
Data set [13] shares this target. Kind of data set: Molecular glue activity at CRBN/CK1-alpha in human MOLM-13 cells assessed as increase in p21 level at 0.1 to 1 uM incubated for 24 hrs by Western blot analysis. The data set is classed as cell-based. The following applies: dose 0.1-1 µM.
Target sequence in this assay (P48729 2-337 limits assumed): as the sequence (P48729 2-337 limits assumed) above
Target sequence in this assay (Q96SW2 whole entry partner): as the sequence (Q96SW2 whole entry) above
For data set [14] the target is unchanged. The data set is described as follows: Molecular glue activity at CRBN/CK1-alpha in human MOLM-13 cells assessed as increase in p53 level at 0.1 to 1 uM incubated for 24 hrs by Western blot analysis. The data set is classed as cell-based. The note with it: dose 0.1-1 µM.
Data set [15] has the same target. Kind of data set: Molecular glue activity at CRBN/CK1-alpha in human MOLM-13 cells assessed as increase in MDM2 level at 0.1 to 1 uM incubated for 24 hrs by Western blot analysis. The data set is classed as cell-based. The following applies: dose 0.1-1 µM.
Data set [16] shares this target. The data set is described as follows: Molecular glue activity at CRBN/CK1-alpha in human MOLM-14 cells assessed as increase in p21 level at 0.1 to 1 uM incubated for 24 hrs by Western blot analysis. The data set is classed as cell-based. The note with it: dose 0.1-1 µM.
For data set [17] the target is unchanged. Kind of data set: Molecular glue activity at CRBN/CK1-alpha in human MOLM-14 cells assessed as increase in p53 level at 0.1 to 1 uM incubated for 24 hrs by Western blot analysis. The data set is classed as cell-based. The following applies: dose 0.1-1 µM.
Data set [18] shares this target. The data set is described as follows: Molecular glue activity at CRBN/CK1-alpha in human MOLM-14 cells assessed as increase in MDM2 level at 0.1 to 1 uM incubated for 24 hrs by Western blot analysis. The note with it: dose 0.1-1 µM. The data set is classed as cell-based.
The nature of data set [19]: Metabolic stability in human liver microsomes assessed as half life. The data set is classed as ADME, Microsome.
The nature of data set [20]: Metabolic stability in mouse liver microsomes assessed as half life. The data set is classed as ADME, Microsome. The note with it: microsomes.
Data set [21] can be described thus: Metabolic stability in human liver microsomes assessed as intrinsic clearance. The data set is classed as ADME, Microsome.
Data set [22] is described as follows: Metabolic stability in mouse liver microsomes assessed as intrinsic clearance. The data set is classed as ADME, Microsome.

The structures appear in SMILES notation. Active and inactive are the calls of the source. The calls are words filed in the database; no cut-off is given here.

Zinc finger protein Helios (Homo sapiens), sequence (Q9UKS7 whole entry): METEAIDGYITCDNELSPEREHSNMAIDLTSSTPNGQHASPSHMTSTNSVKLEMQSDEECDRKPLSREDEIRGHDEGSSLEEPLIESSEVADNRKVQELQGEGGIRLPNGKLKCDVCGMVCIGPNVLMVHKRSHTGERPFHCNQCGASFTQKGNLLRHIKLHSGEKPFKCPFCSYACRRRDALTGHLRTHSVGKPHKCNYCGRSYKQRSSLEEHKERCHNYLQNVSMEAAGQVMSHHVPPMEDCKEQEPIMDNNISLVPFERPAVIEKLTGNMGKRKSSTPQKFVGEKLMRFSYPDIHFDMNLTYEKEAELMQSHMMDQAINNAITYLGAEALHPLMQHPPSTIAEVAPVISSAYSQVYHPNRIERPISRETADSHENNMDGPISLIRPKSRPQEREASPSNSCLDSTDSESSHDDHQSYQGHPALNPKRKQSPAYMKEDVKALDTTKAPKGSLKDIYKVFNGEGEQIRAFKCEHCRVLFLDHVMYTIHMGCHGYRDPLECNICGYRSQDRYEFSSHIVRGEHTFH

Regarding `O=C1CCC(N2Cc3cc(-c4cc5ccccc5cn4)ccc3C2=O)C(=O)N1` (stereo not given), the outcome (in the data set on MOLT-4 [1]; in the data set on MOLT-4 [2]; in [3]) was Active. The DC50 (as a rule, the concentration giving 50% degradation) in data set [4] was 10 nM; in data set [5], 43000 nM. The Emax – broadly, the greatest response seen or fitted, relative to the assay's reference – with Jurkat was determined as 80%. Moreover, the Activity entry in data set [6] is “Not active; Compound Induced Ck1-Alpha Degradation In A Crbn Dependent Manner”.

`O=C1CCC(N2Cc3cc(NC(=O)c4cn5ccccc5n4)ccc3C2=O)C(=O)N1` (stereo not given): the DC50 in data set [4] is 5.7 nM. Also, the Activity entry in data set [7] was “Active; Induces Maximum Degradation”. Also, the result (in [8]; with MOLM-14 [9]; in [11]; in data set [12]; in data set [13]; in data set [14]) was Active. For the same compound, the outcome in data set [15], in data set [16], in [17] and in [18] was Active. Besides, the midpoint of inhibition with MOLM-13, the IC50, lay at 41 nM. Besides, the outcome with MOLM-14 [10] was inactive. Further, the t1/2 was above 2 h in [19] and 1.26 h in data set [20]. Besides, the CLH is below 6 µL/min/mg in [21] and 9 µL/min/mg in data set [22].
